According to publication PMC10291549, “Reaction Behavior of [1,3-Diethyl-4,5-diphenyl-1H-imidazol-2-ylidene] Containing Gold(I/III) Complexes against Ingredients of the Cell Culture Medium and the Meaning on the Potential Use for Cancer Eradication Therapy” (Journal of Medicinal Chemistry, 2023):
Read-outs that look alike come from different tables or passages of the source.

How the values were obtained:
[1] = test system: MCF-7TamR cells (Tamoxifen-resistant subline); type: cell-based, human; settings: 72 h incubation; mean ± SD of two or three independent experiments; read-out: metabolic activity IC50, MCF-7TamR
K562 cells = type: cell-based; settings: 72 h incubation; mean ± SD of two or three independent experiments; read-out: metabolic activity IC50, K562
A549 cells = type: cell-based; settings: 72 h incubation; mean ± SD of two or three independent experiments; read-out: metabolic activity IC50, A549
[2] = test system: A549-R cells (Taxol/Paclitaxel-resistant subclone); type: cell-based; settings: 72 h incubation; mean ± SD of two or three independent experiments; read-out: metabolic activity IC50, A549-R
[3] = test system: K562-R cells (Doxorubicin-resistant subclone); type: cell-based; settings: 72 h incubation; mean ± SD of two or three independent experiments; read-out: metabolic activity IC50, K562-R
MCF-7 cells = type: cell-based, human; settings: 72 h incubation; mean ± SD of two or three independent experiments; read-out: metabolic activity IC50, MCF-7
IGROV1 cells = type: cell-based; settings: 72 h incubation; mean ± SD of two or three independent experiments; read-out: metabolic activity IC50, IGROV1
IGROV1-CSC cells = type: cell-based; settings: 72 h incubation; mean ± SD of two or three independent experiments; read-out: metabolic activity IC50, IGROV1-CSC
[4] = test system: A2780cis cells (Cisplatin-resistant); type: cell-based, human; settings: 72 h incubation; mean ± SD of two or three independent experiments; read-out: metabolic activity IC50, A2780cis
A2780 cells = type: cell-based, human
[5] = HPLC reactivity study in chloride containing ACN/water; type: physicochemical; settings: for formation of 8 / conversion to 5: t0h (1.5 min); for conversion to 5: ACN/water 50/50, 6.0 g/L NaCl + 0.4 g/L KCl, 0.5 mM complex, rt
[6] = HPLC degradation study in ACN/RPMI 1640 cell culture medium; settings: for conversion to 5: ACN/RPMI 1640 50/50 (without FCS)
[7] = test system: SV-80 lung fibroblast cells; assay: Modified MTT assay in noncancerous cells; type: cell-based
[8] = HPLC reactivity study with GSH in ACN/water; type: physicochemical; settings: 20 equiv GSH; for substitution to (NHC)Au(I)-GSH adduct 12: t0h (1.5 min)
Procedure: (§1) All nucleophiles (chloride, amino acids, and GSH) were separately reacted with 5–11 in ACN/water = 50/50 (v/v) mixtures at a complex concentration 0.5 mM. This solvent composition was chosen to prevent precipitation of the complex and the formed degradation products.
(§2) Amino acids, as well as GSH, were used in 20-fold excess, as realized at a complex concentration of 10 μM in the cell culture medium. Thereto, the respective complex, dissolved in ACN (1 mM), was combined with the same amount of aqueous solution of the nucleophile (20 mM).
(§3) The mixture was then incubated for 24 h at rt and monitored at various time points via HPLC using an RP-C18 column and gradient elution (70/30 (v/v) to 90/10 (v/v)) of ACN/water (0.1% trifluoroacetic acid (TFA)).
(§4) Experiments in ACN/water: 1.0 mM solutions of the respective complex were prepared in ACN and diluted with HPLC-grade water (50/50, (v/v)) containing the double-concentrated amount of respective amino acid (20 mM), GSH (20 mM), sodium ascorbate (20 mM), or NADPH (20 mM). As a chloride source, an aqueous solution of KCl 0.8 g/L and NaCl 12 g/L was used. In each case, a final complex concentration of 0.5 mM was achieved. The solutions were incubated for 24 h at rt. For the experiments with RPMI 1640, the aqueous phase was replaced by a cell culture medium.
(§5) Samples (20 μL each) were taken at appropriate time points (t = 0 (1.5 min), 0.5, 1, 1.5, 2, 8, 12, and 24 h) and analyzed with a Shimadzu prominence HPLC system. The mobile phase consisted of ACN (HPLC-grade) and water (HPLC-grade) with 0.1% TFA. To achieve a separation of the compounds, gradient elution from (70/30 (v/v) to 90/10 (v/v)) of ACN/water (0.1% trifluoroacetic acid (TFA)) was used with a flow rate of 1 mL/min at an oven temperature of 35 °C. All solvents have been degassed before use. The injection volume was 20 μL, and the detection wavelength was set at 235 nm, to detect the gold complexes and the amino acids in the chromatogram.

[9] = FCS influence on stability of 7 in RPMI 1640 (protein binding, HPLC); type: in vitro ADME; settings: 4 h, 37 °C
Procedure: The complex (conc. 30 μM) dissolved in RPMI 1640 medium supplemented with 10% FCS was incubated for 4 h at 37 °C in the dark. Subsequently, the proteins were precipitated with ACN and the supernatant was dried by lyophilization. The remaining complexes were extracted from the lyophilizate with DCM. The organic layer was evaporated, and the residue was finally dissolved in 1 mL of ACN. This solution was then analyzed by HPLC as described above.
To 11 mL of RPMI 1640 including 10% FCS, 11 μL of a freshly prepared 3 mM DMF solution of 7 was added. The solution was then incubated for 4 h at 37 °C in the dark. Proteins were precipitated with 33 mL of ACN. The mixture was cooled to −30 °C and stored for 2 h at −20 °C. Subsequently, the supernatant was separated by centrifugation (3000 rpm), collected, and dried by lyophilization. The lyophilizate was extracted three times with 5 mL of DCM and finally dried under reduced pressure. The residue was taken up in 1 mL of ACN, and 30 μL was analyzed by the HPLC method described above. Peak area was used for quantification. The calibrations of 5, 7, and 8 were obtained by injecting 30 μL of the respective solution of pure substances in ACN at a concentration of 1–30 μM (R^2 > 0.99).

[10] = HPLC reactivity study with non-thiol containing amino acids in ACN/water; type: physicochemical; settings: for formation of 8: t24h, 0.5 mM
Procedure: as §1, §2, §3, §4, §5

[11] = 72 h incubation, mean ± SD of two or three independent experiments, read-out: metabolic activity IC50, A2780
[12] = t24h, chloride containing ACN/water 50/50, 0.5 mM
[13] = t0h, ACN/RPMI 1640 50/50, 0.5 mM
[14] = t24h, ACN/RPMI 1640 50/50, 0.5 mM
[15] = chloride containing ACN/water 50/50, 0.5 mM
[16] = t0h, chloride containing ACN/water 50/50, 0.5 mM

| Molecule | IC50 [1] | IC50 (K562 cells) | IC50 (A549 cells) | IC50 [2] | IC50 [3] | IC50 (MCF-7 cells) | IC50 (IGROV1 cells) | IC50 (IGROV1-CSC cells) | IC50 [4] | IC50 (A2780 cells; [11]) | formation of 8 (ligand scrambling / reduction) [5, 12] | formation of 8 [6, 13] | formation of 8 [6, 14] | further results |
| --- | --- | --- | --- | --- | --- | --- | --- | --- | --- | --- | --- | --- | --- | --- |
| CC(=O)OC[C@H]1O[C@@H]([S-])[C@H](OC(C)=O)[C@@H](OC(C)=O)[C@@H]1OC(C)=O.CCP(CC)CC.[Au+] [Auranofin, reference compound] | 1.14 ± 0.46 µM | 3.66 ± 0.27 µM | 4.26 ± 0.45 µM | 4.42 ± 0.44 µM | 3.75 ± 0.38 µM | 3.15 ± 0.36 µM | – | – | – | – | – | – | – | – |
| N.N.[Cl][Pt][Cl] [Cisplatin, reference compound] | 4.13 ± 0.59 µM | 7.91 ± 0.78 µM | 6.67 ± 0.63 µM | 6.99 ± 0.57 µM | 9.93 ± 0.77 µM | 7.18 ± 1.28 µM | 2.84 ± 0.76 µM | 3.76 ± 0.4 µM | 9.8 ± 0.64 µM | 6.65 ± 1.42 µM | – | – | – | – |
| CCn1c(-c2ccccc2)c(-c2ccccc2)n(CC)[c]1=[Au+]([Cl])([Cl])=[c]1n(CC)c(-c2ccccc2)c(-c2ccccc2)n1CC.F[P-](F)(F)(F)(F)F [Complex 9, Bis[1,3-diethyl-4,5-diphenyl-1H-imidazol-2-yliden]dichloridogold(III) Hexafluorophosphate] | 0.26 ± 0.05 µM | 0.55 ± 0.16 µM | 0.18 ± 0.01 µM | 0.21 ± 0.02 µM | 1.43 ± 0.29 µM | 0.24 ± 0.05 µM | 0.7 ± 0.38 µM | 1.74 ± 0.19 µM | 0.05 ± 0.02 µM | 0.25 ± 0.04 µM | 12.5% | 5.0% | 36.3% | – |
| CCn1c(-c2ccccc2)c(-c2ccccc2)n(CC)[c]1=[Au+]([Br])([Br])=[c]1n(CC)c(-c2ccccc2)c(-c2ccccc2)n1CC.F[P-](F)(F)(F)(F)F [Complex 10, Bis[1,3-diethyl-4,5-diphenyl-1H-imidazol-2-ylidene]dibromidogold(III) Hexafluorophosphate] | 0.29 ± 0.18 µM | 0.49 ± 0.12 µM | 0.2 ± 0.02 µM | 0.25 ± 0.04 µM | 1.59 ± 0.3 µM | 0.22 ± 0.07 µM | 0.44 ± 0.19 µM | 1.29 ± 0.23 µM | 0.1 ± 0.04 µM | 0.29 ± 0.05 µM | 5.1% | 9.3% | 71.1% | formation of 8 [5, 15]: 2.2%; substitution to 9 [5, 16]: 24.0%; substitution to 9 [5, 12]: 54.4%; formation of 9 (Br/Cl exchange) [6, 13]: 42.3%; amount of 9 [6, 14]: 18.2%; remaining amount of the complex itself [6, 14]: 10.7% |
| CCn1c(-c2ccccc2)c(-c2ccccc2)n(CC)[c]1=[Au][S]C[C@H](NC(=O)CC[C@H](N)C(=O)O)C(=O)NCC(=O)O [Complex 12] | – | – | – | – | – | – | – | – | – | – | – | – | – | IC50 relative to 5 (and 6) in A2780 cells, times higher / fold less active (A2780 cells): about 2 fold; IC50 relative to 5 (and 6) in A2780 cells, times higher / fold less active (A2780 cells; listed as (NHC)Au(I)-GSH): 2 fold; IC50 (A2780 cells; preliminary experiment, read-out: cell growth IC50, A2780): 15.9 µM |
| Bis[1,3-diethyl-4,5-diphenyl-1H-imidazol-2-ylidene]diiodidogold(III) Hexafluorophosphate [Complex 11] | 0.2 ± 0.07 µM | 0.97 ± 0.26 µM | 0.25 ± 0.02 µM | 0.27 ± 0.04 µM | 2.26 ± 1.08 µM | 0.19 ± 0.05 µM | 1.28 ± 0.93 µM | 2.45 ± 0.97 µM | 0.02 ± 0.01 µM | 0.28 ± 0.06 µM | – | – | – | substitution to 9 [5, 16]: 0.4%; time to complete conversion to 8 ([6]; ACN/RPMI 1640 50/50, 0.5 mM): ≤ 8 h |
| Bromido[1,3-diethyl-4,5-diphenyl-1H-imidazol-2-ylidene]gold(I) [Complex 6] | 4.64 ± 0.44 µM | > 10 µM | > 10 µM | > 10 µM | > 10 µM | 4.54 ± 0.52 µM | 5.78 ± 0.9 µM | 8.78 ± 0.6 µM | 2.87 ± 0.33 µM | 9.38 ± 0.8 µM | – | – | – | conversion to 5 [5]: quantitatively; metabolic activity (remaining) in SV-80 cells ([7]; at 10 μM, mean of three independent experiments): 20%; substitution to (NHC)Au(I)-GSH adduct 12 ([8]; ACN/water 50/50, 0.5 mM): quantitatively; conversion to 5 ([6]; t0h, 0.5 mM): immediately converted |
| Iodido[1,3-diethyl-4,5-diphenyl-1H-imidazol-2-ylidene]gold(I) [Complex 7] | 1.63 ± 0.79 µM | 0.72 ± 0.3 µM | 1.12 ± 0.17 µM | 1.21 ± 0.36 µM | 1.53 ± 1.04 µM | 0.48 ± 0.08 µM | 1.94 ± 0.35 µM | 0.47 ± 0.13 µM | 0.4 ± 0.06 µM | 1.43 ± 0.4 µM | 18.9% | 0.8% | 23.1% | conversion to 5 [5]: 13.3%; formation of 8 [5, 15]: 3.6%; quantity of 5 formed [5, 12]: stayed constant; concentration in the free fraction after incubation of 7 ([9]; 7 (30 μM) in RPMI 1640 + 10% FCS, dark, protein precipitation with ACN, from HPLC peak areas): 780 nM; protein-bound fraction ([9]; 7 and its degradation products in RPMI 1640 + 10% FCS): about 50%; ratio of 7/8 ([10]; 20 equiv arginine (Arg), after 30 min, stable until 24 h): 90/10; reaction with amino acids ([10]; 20 equiv non-thiol containing amino acid, ACN/water 50/50): did not react; formation of 8 ([10]; 20 equiv glutamic acid (Glu), ACN/water 50/50): 31.6%; formation of 8 ([10]; 20 equiv methionine (Met), ACN/water 50/50): 27.5%; formation of 8 ([10]; pure ACN/water 50/50): 31.2%; metabolic activity (remaining) in SV-80 cells ([7]; at 1.5 μM): 77%; start of ligand scrambling ([8]; time-dependent analysis): 1 h; substitution to (NHC)Au(I)-GSH adduct 12 ([8]; ACN/water 50/50, 0.5 mM): 9.7%; formation of 8 ([8]; t24h, ACN/water 50/50, 0.5 mM): 9.8%; proportion of 12 ([8]; t24h, ACN/water 50/50, 0.5 mM): 4.7%; amount of 5 formed ([6]; during 24 h, ACN/RPMI 1640 50/50): remained constant; conversion to 5 ([6]; t0h, 0.5 mM): 14.3%; formation of GSH-adduct 12 [6, 14]: No GSH-adduct 12 could be detected |
